Data on three compounds can be found in patent publication US7173049B2, “Fungicidal compositions” (Bayer Cropscience S.A., priority 2001, dated 2007).

For this experiment, the system named is Plasmopara viticola. The experiment can be described thus: Test against downy mildew of grapevine (preventive action). In kind it is in vivo, Plasmopara viticola on grapevine plants (Chardonnay variety). The note with it: alone. The source says: In the compositions according to the invention, the compound (I)/compound (II) ratio is advantageously chosen so as to produce a synergistic effect. The term “synergistic effect” especially means the effect defined by S. R. Colby in an article entitled “Calcul des responses synergiques et antagonistes des combinaisons herbicides [Calculation of the synergistic and antagonist responses of herbicidal combinations]”, Weeds, (1967), 15, pages 20–22.
[formula] in which E represents the expected percentage of inhibition of the disease for the combination of the two fungicides at defined doses (for example equal to x and y, respectively), X is the percentage of inhibition observed for the disease by compound (I) at a defined dose (equal to x), Y is the percentage of inhibition observed for the disease by compound (II) at a defined dose (equal to y). When the percentage of inhibition observed for the combination is greater than E, there is a synergistic effect.
Test of a composition against downy mildew of grapevine (Plasmopara viticola; preventive action):
Grapevine plants (Chardonnay variety) are grown on sandy soil in plastic pots, with one plant per pot. The two-month-old plants (6 to 7 leaves developed) are sprayed with compound (I) and compound (II), either alone or as a mixture.
The fungicidal active materials, either alone or as a mixture, are applied at a rate of 500 liters/ha.
The compound (I)/compound (II) ratios studied are 1/10, 1/15 and 1/20.
Three days after the treatment, each plant is inoculated by spraying with an aqueous suspension of Plasmopara viticola spores obtained from contaminated leaves. The spore concentration is about 100 000 units per ml.
After contamination, the plants are incubated for two days at 18° C. under a saturated atmosphere, and then for 5 days at about 20° C. with a relative humidity of 90–100%.
Seven days after the contamination, the symptoms are evaluated in terms of extent of surface area on the underside of the leaves that are infected, relative to the untreated but contaminated plants.
The efficacy of the treatment is calculated using the Abbott formula below: […]
The concentrations of the fungicides alone or as a mixture giving 50%, 70% or 90% efficacy for each component, in the appropriate test, are determined on the basis of the model of the dose/response sigmoid curve and their corresponding confidence intervals. The results are analysed using the Tammes or Colby model.

With `OP(O)O` [Compound (IIa), phosphorous acid], the “% Efficacy” value (70 mg/l) turned out to be 0%; the “% Efficacy” value (105 mg/l) amounted to 0%; the “% Efficacy” value (140 mg/l) was 0%; the “% Efficacy” value (700 mg/l) is given as 4%; the “% Efficacy” value (1050 mg/l) was determined as 50%; the “% Efficacy” value (1400 mg/l) is given as 52%.

As to `CCO[PH](=O)O.[Al]` [Compound (IIb), aluminium ethyl hydrogen phosphonate, reference compound], the “% Efficacy” value (100 mg/l) was 0%; the “% Efficacy” value (150 mg/l) is on record as 0%; the “% Efficacy” value (200 mg/l) came out at 0%; the “% Efficacy” value (1000 mg/l) is reported as 46%; the “% Efficacy” value (1500 mg/l) is reported as 60%; the “% Efficacy” value (2000 mg/l) is given as 81%.

With `O=C(NCc1ncc(C(F)(F)F)cc1Cl)c1c(Cl)cccc1Cl` [Compound (Ia), 2,6-dichloro-N-{[3-chloro-5-(tri-fluoromethyl)-2-pyridinyl]methyl}benzamide], the “% Efficacy” value runs as follows: (10 mg/l, preventive, 7 days after contamination) 77%; (100 mg/l) 100%.
